Results as given in patent EP4707275A1, “NOVEL COMPOUND COMPRISING N-METHYLPIPERAZINE ETHANOL CARBAMATE STRUCTURE AND USE THEREOF” (Korea Institute of Radiological & Medical Sciences, priority 2023, dated 2024).

How the values were obtained:
[1] = system: idiopathic pulmonary fibrosis induced by bleomycin; test: Inhibitory effect on idiopathic pulmonary fibrosis induced by bleomycin in mice (Micro-CT, H&E and Masson's Trichrome staining, survival); type: in vivo, C57BL/6 mice; details: oral once daily for two weeks from day 14, nintedanib 60 mg/kg, vs untreated group; for degree of fibrosis (Micro-CT imaging): 4 weeks after bleomycin 1.5 U/kg; for degree of inflammation and fibrosis (H&E and Masson's Trichrome staining) / survival rate: bleomycin 1.5 U/kg; for survival rate: Example 5, FIG. 9
Procedure: Each drug was administered starting 14 days after the administration of bleomycin. The drug was orally administered at a dose of 20 mg/kg once daily for two weeks (a total of 13 administrations). The control drug, nintedanib, was administered at a dose of 60 mg/kg, and the co-administration group was orally administered nintedanib (60 mg/kg) together with DCTP (20 mg/kg) once daily for two weeks (a total of 13 administrations).
The results of H&E and Masson's Trichrome staining performed to evaluate the degree of inflammation and fibrosis are shown in FIG. 3.
Each drug was administered starting 14 days after the administration of bleomycin. Nintedanib and PXDP were each orally administered at a dose of 60 mg/kg once daily for two weeks (a total of 13 administrations), and the group treated with the combination was orally administered nintedanib (60 mg/kg) together with PXDP (60 mg/kg) once daily for two weeks (a total of 13 administrations).
The results of H&E and Masson's Trichrome staining performed to evaluate the degree of inflammation and fibrosis are shown in FIG. 8.
In addition, the mouse survival rate was compared in FIG. 9.

[2] = system: radiation-induced pulmonary fibrosis; test: Inhibitory effect on radiation-induced pulmonary fibrosis in mice (Micro-CT, H&E and Masson's Trichrome staining); type: in vivo, C57BL/6 mice; details: 2 weeks after radiation exposure (SBRT 90 Gy), oral, nintedanib 60 mg/kg once daily, vs untreated group
Procedure: One hour before stereotactic body radiation therapy (SBRT; 90 Gy, 4 mm collimator), DCTP and nintedanib, an FDA-approved drug known to inhibit pulmonary fibrosis, were orally administered to seven-week-old male C57BL/6 mice. The degree of pulmonary fibrosis and the inhibitory effect on radiation-induced lung injury were observed two weeks after radiation exposure. The DCTP drug was administered at a dose of 30 mg/kg, and nintedanib was administered once daily (o.d.) at a dose of 60 mg/kg. In addition, to analyze the degree of inflammatory response and the degree of fibrosis two weeks after radiation exposure, H&E staining and Masson's Trichrome staining were performed, and the results are shown in FIG. 5. One hour prior to stereotactic body radiation therapy (SBRT; 90 Gy, 4 mm collimator), PXDP and nintedanib, an FDA-approved drug known to inhibit pulmonary fibrosis, were orally administered to seven-week-old male C57BL/6 mice. The degree of pulmonary fibrosis and the inhibitory effect on radiation-induced lung injury were observed two weeks after radiation exposure. The PXDP drug was administered at a dose of 100 mg/kg, and nintedanib was administered once daily (o.d.) at a dose of 60 mg/kg. To analyze the degree of inflammatory response and the degree of fibrosis 2 weeks after radiation exposure, H&E staining and Masson's Trichrome staining were performed, and the results are shown in FIG. 11.

[3] = Example 5, FIG. 7, PXDP 60 mg/kg
[4] = Example 5, FIG. 8, PXDP 60 mg/kg
[5] = Example 3, FIG. 5, DCTP 30 mg/kg
[6] = Example 6, FIG. 10, PXDP 100 mg/kg
[7] = Example 6, FIG. 11, PXDP 100 mg/kg

Compound	degree of fibrosis (Micro-CT imaging) ([1]; Example 2, FIG. 2, DCTP 20 mg/kg)	degree of inflammation and fibrosis (H&E and Masson's Trichrome staining) ([1]; Example 2, FIG. 3, DCTP 20 mg/kg)	degree of fibrosis (Micro-CT imaging) [1, 3]	degree of inflammation and fibrosis (H&E and Masson's Trichrome staining) [1, 4]	survival rate ([1]; PXDP 60 mg/kg)	degree of fibrosis (Micro-CT imaging) ([2]; Example 3, FIG. 4, DCTP 30 mg/kg)	degree of inflammation and degree of fibrosis (H&E and Masson's Trichrome staining) [2, 5]	degree of fibrosis (Micro-CT imaging) [2, 6]	degree of inflammation and degree of fibrosis (H&E and Masson's Trichrome staining) [2, 7]	degree of fibrosis (Micro-CT imaging) ([2]; Example 6, FIG. 10, PXDP 100 mg/kg, listed as PXPD)
COC(=O)c1ccc2c(c1)NC(=O)/C2=C(\Nc1ccc(N(C)C(=O)CN2CCN(C)CC2)cc1)c1ccccc1 [nintedanib]	reduction in the degree of fibrosis	alleviation of pulmonary fibrosis and inflammation	reduction in the degree of fibrosis	alleviation of pulmonary fibrosis and inflammation	survival rate increased	reduction in the degree of fibrosis	reduction in fibrosis and inflammation in the lungs	reduction in the degree of fibrosis	alleviation of fibrosis and inflammation in the lungs	
COc1cc2ncnc(N(C(=O)OCCN3CCN(C)CC3)c3ccc(F)c(Cl)c3)c2cc1NC(=O)/C=C/CN1CCCCC1 [DCTP, 2-(4-methylpiperazin-1-yl)ethyl (E)-(3-chloro-4-fluorophenyl)(7-methoxy-6-(4-(piperidin-1-yl)but-2-enamido)quinazolin-4-yl)carbamate]							reduction in fibrosis and inflammation in the lungs			
CN1CCN(CCOC(=O)N(Cc2ccc(C(F)(F)F)nc2)c2ccc(Cc3c[nH]c4ncc(Cl)cc34)cn2)CC1 [PXDP, 2-(4-methylpiperazin-1-yl)ethyl (5-((5-chloro-1H-pyrrolo[2,3-b]pyridin-3-yl)methyl)pyridin-2-yl)((6-(trifluoromethyl)pyridin-3-yl)methyl)carbamate]			reduction in the degree of fibrosis	alleviation of pulmonary fibrosis and inflammation	survival rate increased			reduction in the degree of fibrosis	alleviation of fibrosis and inflammation in the lungs	superior to that of nintedanib
